Source: patent US11253500B2, “Sanfetrinem or a salt or ester thereof for use in treating mycobacterial infection” (priority 2017, dated 2022)
In brackets after ≈: the same amount, converted by molar mass. Several values for one entry are separate records, joined by “and”; a condition that tells them apart may be missing. Identical values can stand only once. Counter-ions that a name gives are not always drawn. Like-named read-outs stand apart in the source and are kept apart here.

What was measured:
[1] = test system: Mycobacterium tuberculosis growing inside human THP-1 monocytes; assay: Intracellular viability assay (luciferase Mtb in THP-1 monocytes); type: cell-based
M. tuberculosis H37Rv [2] = assay: MIC determination (extracellular, resazurin); type: cell-based, Mycobacterium tuberculosis
M. tuberculosis H37Rv [3] = assay: Checkerboard combination with amoxicillin and/or clavulanate (resazurin); type: cell-based, Mycobacterium tuberculosis
Mtb H37Rv strain = assay: Checkerboard assay with rifampicin, ethambutol, delamanid and amoxicillin (384-well, MTT or ATP); type: cell-based, Mycobacterium tuberculosis; details: for MICsyn_B / FIC_B: Comp B in the presence of SFT; for MIC: Mycobacterium tuberculosis, H37RV, Comp B alone (IC90); for Fold_B: MIC/MICsyn of Comp B with SFT
[4] = test system: panel of twenty-three M. tuberculosis strains; assay: microbe, parasite or virus in culture; type: cell-based, Mycobacterium tuberculosis; details: for MIC: Mycobacterium tuberculosis
M. tuberculosis H37Rv [5] = assay: In vivo anti-tubercular activity in DHP-1 KO mice; design: species or system Mycobacterium tuberculosis; details: 129sv DHP-1 KO mice; for Lung CFU: intratracheal infection, twice a day from day 9 to day 14, lungs day 15, mean, untreated 7.4 (Day 9), 9.0 (Day 15); for Effect on bacterial growth in lung: treated day 9 to day 14
[6] = Mycobacterium tuberculosis, w/o clav, average, read-out: MIC50 μM (average w/o clav)
[7] = Mycobacterium tuberculosis, w/o clav, average, read-out: MIC90 μM (average w/o clav)
[8] = Mycobacterium tuberculosis, with clav, average, read-out: MIC50 μM (average with clav)
[9] = Mycobacterium tuberculosis, with clav, average, read-out: MIC90 μM (average with clav)
[10] = Mycobacterium tuberculosis, H37RV, extracellular, with 4 μg/ml potassium clavulanate, average, read-out: MIC μM (average with clav)
[11] = Mycobacterium tuberculosis, H37RV, extracellular, with 4 μg/ml potassium clavulanate, separate readings, read-out: MIC μM (with clav)
[12] = Mycobacterium tuberculosis, H37RV, extracellular, without clavulanate, average, read-out: MIC μM (average w/o clav)
[13] = Mycobacterium tuberculosis, H37RV, extracellular, without clavulanate, separate readings, read-out: MIC μM (w/o clav)
[14] = Mycobacterium tuberculosis, w/o clav, separate readings, read-out: MIC50 μM (w/o clav)
[15] = Mycobacterium tuberculosis, w/o clav, separate readings, read-out: MIC90 μM (w/o clav)
[16] = Mycobacterium tuberculosis, with clav, separate readings, read-out: MIC50 μM (with clav)
[17] = Mycobacterium tuberculosis, with clav, separate readings, read-out: MIC90 μM (with clav)
[18] = w/o clav, separate readings, read-out: MIC50 μM (w/o clav)
[19] = w/o clav, separate readings, read-out: MIC90 μM (w/o clav)
[20] = with clav, separate readings, read-out: MIC50 μM (with clav)
[21] = with clav, separate readings, read-out: MIC90 μM (with clav)
[22] = Mycobacterium tuberculosis, H37RV

## C[C@@H](O)[C@H]1C(=O)N2C(C(=O)O)=C(S[C@@H]3CN[C@H](C(=O)Nc4cccc(C(=O)O)c4)C3)[C@H](C)[C@H]12 [Ertapenem]
[1]; [6]
  MIC50: 29.6 µM (≈ 14.1 µg/mL)
[1]; [7]
  MIC90: > 50 µM
[1]; [8]
  MIC50: 3.84 µM (≈ 1.83 µg/mL)
[1]; [9]
  MIC90: 21 µM (≈ 10 µg/mL)
M. tuberculosis H37Rv [2]; [10]
  MIC: 16.7 µM
M. tuberculosis H37Rv [2]; [11]
  MIC: 10 µM
M. tuberculosis H37Rv [2]; [12]
  MIC: > 80 µM
M. tuberculosis H37Rv [2]; [13]
  MIC: 80 µM
M. tuberculosis H37Rv [2]; extracellular, with 4 μg/ml potassium clavulanate, separate readings, read-out: MIC μM (with clav)
  MIC: 20 µM

## O=C(O)[C@H]1/C(=C/CO)O[C@@H]2CC(=O)N21 [clavulanate, Potassium clavulanate]
M. tuberculosis H37Rv [3]; alone
  Activity alone: not active

## C[C@@H](O)[C@H]1C(=O)N2C(C(=O)O)=C(S[C@@H]3CN[C@H](C(=O)N(C)C)C3)[C@H](C)[C@H]12 [Meropenem]
[1]; [6]
  MIC50: 6.78 µM (≈ 2.6 µg/mL)
[1]; [7]
  MIC90: 17 µM (≈ 6.52 µg/mL)
[1]; [14]
  MIC50: 8.97 µM (≈ 3.44 µg/mL)
[1]; [15]
  MIC90: 19.6 µM (≈ 7.52 µg/mL)
[1]; [8]
  MIC50: 1.94 µM (≈ 0.744 µg/mL)
[1]; [9]
  MIC90: 5.55 µM (≈ 2.13 µg/mL)
[1]; [16]
  MIC50: 2.03 µM (≈ 0.778 µg/mL)
[1]; [17]
  MIC90: 5.39 µM (≈ 2.07 µg/mL)
[1]; [18]
  MIC50: 4.6 µM (≈ 1.76 µg/mL)
[1]; [19]
  MIC90: 14.41 µM (≈ 5.53 µg/mL)
[1]; [20]
  MIC50: 1.85 µM (≈ 0.709 µg/mL)
[1]; [21]
  MIC90: 5.71 µM (≈ 2.19 µg/mL)
M. tuberculosis H37Rv [2]; [10]
  MIC: 6.9 µM
M. tuberculosis H37Rv [2]; [12]
  MIC: 31.7 µM

## CC1(C)S[C@@H]2[C@H](NC(=O)[C@H](N)c3ccc(O)cc3)C(=O)N2[C@H]1C(=O)O [amoxicillin]
Mtb H37Rv strain
  MICsyn_B: 8 µM
  MIC: 128 µM
M. tuberculosis H37Rv [3]; [22]
  IC80: 42 µg/mL
M. tuberculosis H37Rv [3]; amoxicillin in monotherapy
  Reaching 90% Inhibition: does not reach a 90% Inhibition
M. tuberculosis H37Rv [3]; in combination with clavulanate
  Reaching 90% growth inhibition: nor in combination with clavulanate reach the 90% growth inhibition

## CO[C@H]1CCC[C@H]2C1=C(C(=O)O)N1C(=O)[C@H]([C@@H](C)O)[C@@H]21 [Sanfetrinem (sodium salt), sodium (1S,5S,8aS,8bR)-1-((R)-1-hydroxyethyl)-5-methoxy-2-oxo-1,2,5,6,7,8,8a,8b-octahydroazeto[2,1-a]isoindole-4-carboxylate]
Mtb H37Rv strain; MIC/MICsyn of SFT with AMX
  Fold_A: 8
Mtb H37Rv strain; MIC/MICsyn of SFT with DLD
  Fold_A: 4
Mtb H37Rv strain; MIC/MICsyn of SFT with EMB
  Fold_A: 4
Mtb H37Rv strain; MIC/MICsyn of SFT with RIF
  Fold_A: 8
Mtb H37Rv strain; SFT in the presence of AMX
  FIC_A: 0.125
  MICsyn_A: 0.5 µM
Mtb H37Rv strain; SFT in the presence of DLD
  FIC_A: 0.25
  MICsyn_A: 0.4 µM
Mtb H37Rv strain; SFT in the presence of EMB
  FIC_A: 0.25
  MICsyn_A: 0.4 µM
Mtb H37Rv strain; SFT in the presence of RIF
  FIC_A: 0.125
  MICsyn_A: 0.4 µM
Mtb H37Rv strain; combination SFT with AMX
  FICI: 0.1875
Mtb H37Rv strain; combination SFT with DLD
  FICI: 0.5
Mtb H37Rv strain; combination SFT with EMB
  FICI: 0.5
Mtb H37Rv strain; combination SFT with RIF
  FICI: 0.25
M. tuberculosis H37Rv [3]; [22]
  IC90: 1.22 µg/mL
M. tuberculosis H37Rv [3]; Mycobacterium tuberculosis, H37RV, read-out: IC90 of sanfetrinem in combination with amoxicillin (at 10 μg/ml)
  IC90: 0.33 µg/mL
M. tuberculosis H37Rv [3]; Mycobacterium tuberculosis, H37RV, read-out: IC90 of sanfetrinem in combination with clavulanate
  IC90: 0.55 µg/mL
[4]; MGIT 960, 23 strains, 0.5 to 20 μM
  Sensitivity of all strains within the concentration range tested: sensitive
[4]; read-out: MIC, another four strains higher
  MIC: > 5 µM
[4]; read-out: MIC, four strains lower
  MIC: < 5 µM
[4]; read-out: MIC, most common value
  MIC: 5 µM
[1]; [6]
  MIC50: 1.65 µM
[1]; [7]
  MIC90: 5.57 µM
[1]; [14]
  MIC50: 1.32 µM
[1]; [8]
  MIC50: 1.64 µM
[1]; [9]
  MIC90: 7.25 µM
[1]; [17]
  MIC90: 6.13 µM
[1]; [18]
  MIC50: 1.64 µM and 2 µM
[1]; [21]
  MIC90: 6.8 µM and 8.82 µM
M. tuberculosis H37Rv [5]
  Lung CFU: 7.3 log CFU
  Effect on bacterial growth in lung: preventing bacterial growth
M. tuberculosis H37Rv [2]; Mycobacterium tuberculosis, H37RV, read-out: MIC μM (average w/o clav), extracellular, without clavulanate, average
  MIC: 5 µM
M. tuberculosis H37Rv [2]; Mycobacterium tuberculosis, H37RV, read-out: MIC μM (average with clav), extracellular, with 4 μg/ml potassium clavulanate, average
  MIC: 2.9 µM

## CO[C@H]1/C=C/O[C@@]2(C)Oc3c(C)c(O)c4c(O)c(c(/C=N/N5CCN(C)CC5)c(O)c4c3C2=O)NC(=O)/C(C)=C\C=C\[C@H](C)[C@H](O)[C@@H](C)[C@@H](O)[C@@H](C)[C@H](OC(C)=O)[C@@H]1C [RIF, Rifampicin]
Mtb H37Rv strain
  MICsyn_B: 0.005 µM
  MIC: 0.04 µM

## CC[C@@H](CO)NCCN[C@@H](CC)CO [EMB, Ethambutol]
Mtb H37Rv strain
  FIC_B: 0.25
  MICsyn_B: 2 µM
  Fold_B: 4
  MIC: 8 µM

## C[C@]1(COc2ccc(N3CCC(Oc4ccc(OC(F)(F)F)cc4)CC3)cc2)Cn2cc([N+](=O)[O-])nc2O1 [DLD, Delamanid]
Mtb H37Rv strain
  FIC_B: 0.25
  MICsyn_B: 0.0025 µM
  Fold_B: 4
  MIC: 0.01 µM

## C[C@@H](O)[C@H]1C(=O)N2C(C(=O)O)=C(SC3CN(C4=NCCS4)C3)[C@H](C)[C@H]12 [Tebipenem]
[1]; [6]
  MIC50: 4.51 µM (≈ 1.73 µg/mL)
[1]; [7]
  MIC90: 46.5 µM (≈ 17.8 µg/mL)
[1]; [8]
  MIC50: 0.49 µM (≈ 0.188 µg/mL)
[1]; [9]
  MIC90: 3.61 µM (≈ 1.38 µg/mL)
M. tuberculosis H37Rv [2]; [10]
  MIC: 1.25 µM
M. tuberculosis H37Rv [2]; [11]
  MIC: 1.25 µM
M. tuberculosis H37Rv [2]; [12]
  MIC: 7.5 µM
M. tuberculosis H37Rv [2]; [13]
  MIC: 7.5 µM

## C[C@@H](O)[C@H]1C(=O)N2C(C(=O)O)=C([C@H]3CCCO3)S[C@H]12 [Faropenem]
[1]; [6]
  MIC50: 1.85 µM (≈ 0.528 µg/mL)
[1]; [7]
  MIC90: 12.3 µM (≈ 3.52 µg/mL)
[1]; [14]
  MIC50: 2.2 µM (≈ 0.628 µg/mL)
[1]; [15]
  MIC90: 14.7 µM (≈ 4.19 µg/mL)
[1]; [8]
  MIC50: 1.1 µM (≈ 0.314 µg/mL)
[1]; [9]
  MIC90: 5.75 µM (≈ 1.64 µg/mL)
[1]; [16]
  MIC50: 1 µM (≈ 0.285 µg/mL)
[1]; [17]
  MIC90: 6.8 µM (≈ 1.94 µg/mL)
[1]; [18]
  MIC50: 1.5 µM (≈ 0.428 µg/mL)
[1]; [19]
  MIC90: 10.0 µM (≈ 2.85 µg/mL)
[1]; [20]
  MIC50: 1.2 µM (≈ 0.342 µg/mL)
[1]; [21]
  MIC90: 4.7 µM (≈ 1.34 µg/mL)
M. tuberculosis H37Rv [2]; [10]
  MIC: 8.9 µM
M. tuberculosis H37Rv [2]; [12]
  MIC: 15.7 µM

## CO[C@H]1CCC[C@H]2C1=C(C(=O)OC(C)OC(=O)OC1CCCCC1)N1C(=O)[C@H]([C@@H](C)O)[C@@H]21 (mixture of isomers) [Sanfetrinem cilexetil, (1S,5S,8aS,8bR)-1-(((cyclohexyloxy)carbonyl)oxy)ethyl 1-((R)-1-hydroxyethyl)-5-methoxy-2-oxo-1,2,5,6,7,8,8a,8b-octahydroazeto[2,1-a]isoindole-4-carboxylate]
[1]; [6]
  MIC50: 0.85 µM (≈ 0.384 µg/mL)
[1]; [7]
  MIC90: 5.2 µM (≈ 2.35 µg/mL)
[1]; [8]
  MIC50: 0.6 µM (≈ 0.271 µg/mL)
[1]; [9]
  MIC90: 5 µM (≈ 2.26 µg/mL)
[1]; [17]
  MIC90: 4.6 µM (≈ 2.08 µg/mL)
[1]; [21]
  MIC90: 5.3 µM (≈ 2.39 µg/mL)
M. tuberculosis H37Rv [5]
  Lung CFU: 7.6 log CFU
  Effect on bacterial growth in lung: preventing bacterial growth
M. tuberculosis H37Rv [2]; [10]
  MIC: 8.6 µM
M. tuberculosis H37Rv [2]; [12]
  MIC: 10.6 µM
